Converted amounts (≈) assume the structure as drawn.
Legend:
[1] = Cmax in rat at 25 mg/kg, po dosed as solution in PEG400/EtOH; type: ADME, organism-based; parameters: dose 25 mg/kg, route oral; conditions: in vivo
[2] = Cytotoxicity against human HeLa67 cells expressing CD4/CCR5 after 3 days by XTT assay; type: cell-based
[3] = test system: Human immunodeficiency virus 1; test: Antiviral activity against pseudotype HIV1 JRFL infected in human HeLa67 cells expressing CD4/CCR5 after 3 days by luciferase reporter gene assay; type: functional, organism-based; conditions: Human immunodeficiency virus 1, JRFL, HeLa67, 72 h
[4] = Clearance in rat at 5 mg/kg, iv dosed as solution in PEG400/EtOH; type: ADME, organism-based; parameters: dose 5 mg/kg, route intravenous; conditions: in vivo
[5] = Volume of distribution at steady state in rat at 5 mg/kg, iv dosed as solution in PEG400/EtOH; type: ADME, organism-based; parameters: dose 5 mg/kg, route intravenous; conditions: in vivo, read-out: Vdss
[6] = Terminal half life in rat at 5 mg/kg, iv dosed as solution in PEG400/EtOH; type: ADME, organism-based; parameters: dose 5 mg/kg, route intravenous; conditions: in vivo, read-out: beta t1/2
[7] = Mean residence time in rat at 5 mg/kg, iv dosed as solution in PEG400/EtOH; type: ADME, organism-based; parameters: dose 5 mg/kg, route intravenous; conditions: in vivo
[8] = Tmax in rat at 25 mg/kg, po dosed as solution in PEG400/EtOH; type: ADME, organism-based; parameters: dose 25 mg/kg, route oral; conditions: in vivo
[9] = Tmax in rat at 5 mg/kg, po dosed as solution in PEG400/EtOH; type: ADME, organism-based; parameters: dose 5 mg/kg, route oral; conditions: in vivo
[10] = Terminal half life in rat at 25 mg/kg, po dosed as solution in PEG400/EtOH; type: ADME, organism-based; parameters: dose 25 mg/kg, route oral; conditions: in vivo, read-out: beta t1/2
[11] = Oral bioavailability in rat at 25 mg/kg dosed as solution in PEG400/EtOH; type: ADME, organism-based; conditions: in vivo
[12] = Oral bioavailability in rat at 5 mg/kg dosed as solution in PEG400/EtOH; type: ADME, organism-based; conditions: in vivo
[13] = Permeability across human Caco-2 cells; type: ADME, cell-based; conditions: read-out: permeability
[14] = Cmax in rat at 5 mg/kg, po dosed as nanosuspension; type: ADME, organism-based; parameters: dose 5 mg/kg, route oral; conditions: in vivo
[15] = Tmax in rat at 5 mg/kg, po dosed as nanosuspension; type: ADME, organism-based; parameters: dose 5 mg/kg, route oral; conditions: in vivo
[16] = Oral bioavailability in rat at 5 mg/kg dosed as nanosuspension; type: ADME, organism-based; conditions: in vivo
[17] = Cmax in dog at 1 mg/kg, po dosed as solution in PEG400/EtOH; type: ADME, organism-based, Canis lupus familiaris; parameters: dose 1 mg/kg, route oral; conditions: in vivo
[18] = Tmax in dog at 1 mg/kg, po dosed as solution in PEG400/EtOH; type: ADME, organism-based, Canis lupus familiaris; parameters: dose 1 mg/kg, route oral; conditions: in vivo
[19] = Oral bioavailability in dog at 1 mg/kg dosed as solution in PEG400/EtOH; type: ADME, organism-based, Canis lupus familiaris; conditions: in vivo
[20] = Cmax in dog at 1 mg/kg, po dosed as micronized suspension; type: ADME, organism-based, Canis lupus familiaris; parameters: dose 1 mg/kg, route oral; conditions: in vivo
[21] = Tmax in dog at 1 mg/kg, po dosed as micronized suspension; type: ADME, organism-based, Canis lupus familiaris; parameters: dose 1 mg/kg, route oral; conditions: in vivo
[22] = Oral bioavailability in dog at 1 mg/kg dosed as micronized suspension; type: ADME, organism-based, Canis lupus familiaris; conditions: in vivo
[23] = Oral bioavailability in dog at 1 mg/kg dosed as nanosuspension; type: ADME, organism-based, Canis lupus familiaris; conditions: in vivo
[24] = Solubility in water; type: physicochemical; conditions: buffer
[25] = Solubility in poly ethylene glycol 400; type: physicochemical; conditions: polyethylene glycol 400
[26] = Cmax in dog at 1 mg/kg, po dosed as nanosuspension; type: ADME, organism-based, Canis lupus familiaris; parameters: dose 1 mg/kg, route oral; conditions: in vivo
[27] = Tmax in dog at 1 mg/kg, po dosed as nanosuspension; type: ADME, organism-based, Canis lupus familiaris; parameters: dose 1 mg/kg, route oral; conditions: in vivo

Cmax [1]: 649 ng/mL | EC50 [3]: 2.59 nM | clearance [4]: 48 mL/min/kg | Vd [5]: 0.99 L/kg | half-life [6]: 0.467 h | MRT [7]: 0.35 h | Tmax [8]: 0.883 h | Tmax [9]: 0.617 h | half-life [10]: 1.2 h | bioavailability [11]: 17% | bioavailability [12]: 9% | Papp [13]: 10 ×10⁻⁶ cm/s | Cmax [14]: 18 ng/mL | Tmax [15]: 2.83 h | bioavailability [16]: 4% | Cmax [17]: 560 ng/mL | Tmax [18]: 1.2 h | bioavailability [19]: 89% | Cmax [20]: 60 ng/mL | Tmax [21]: 4 h | bioavailability [22]: 12% | bioavailability [23]: 36% | solubility [24]: 0.005 µg/mL (≈ 1.32e-05 mM) | solubility [25]: 4600 µg/mL (≈ 12.1 mM) | Cmax [26]: 160 ng/mL | Tmax [27]: 1.8 h
Structure (SMILES): O=C(C(=O)N1CCN(C(=O)c2ccccc2)CC1)c1c[nH]c2cccc(F)c12
CC50 at 72 h [2]: > 300000 nM

Reference: ChEMBL document CHEMBL1153340, “Inhibitors of HIV-1 attachment. Part 2: An initial survey of indole substitution patterns” (Bioorg Med Chem Lett, 2009)
